Assay results: patent US4970215A, “Substituted 4-(quinolin-2-yl-methoxy)phenyl-acetic acid derivatives and anti-allergic use thereof” (Bayer Aktiengesellschaft, priority 1988, dated 1990)

System: lipoxygenase
Assay: Lipoxygenase inhibition: release of leucotriene B4 (LTB4) from polymorphonuclear rat leucocytes (PMN) after Ca-ionophor, reverse phase HPLC
Type: cell-based
Settings: RP-HPLC, read-out: LO inhibition IC50
Protocol: The release of leucotriene B4 (LTB4) from polymorphonuclear rat leucocytes (PMN) following addition of substances and a Ca-ionophor was determined by means of reverse phase HPLC by the method of Borgeat, P. et al., Proc. Nat. Acad. Sci. (USA) 76, 2148-2152 (1979) as a measure of lipoxygenase inhibition. The values achieved in this test with some compounds according to the invention are listed by way of example in Table 1: […]

IC50 [nM]	Compound
40	O=C(O)C(c1ccc(OCc2ccc3ccccc3n2)cc1)C1CCCC1 (stereo not drawn) [Example 9, 2-[4-(Quinolin-2-yl-methoxy)phenyl]-2-cyclopentylacetic acid]
10	O=C(O)C(CC1CCCCC1)c1ccc(OCc2ccc3ccccc3n2)cc1 (stereo not drawn) [Example 8, 2-[4-(Quinolin-2-yl-methoxy)phenyl]-3-cyclohexylpropionic acid]
140	O=C(O)C(CC1CC1)c1ccc(OCc2ccc3ccccc3n2)cc1 (stereo not drawn) [Example 7, 2-[4-(Quinolin-2-yl-methoxy)phenyl]-3-cyclopropylpropionic acid]
